Source: ChEMBL document CHEMBL3588827, “A new class of ghrelin O-acyltransferase inhibitors incorporating triazole-linked lipid mimetic groups” (Bioorg Med Chem Lett, 2015)

Molecular target: T1, Membrane-bound ghrelin O-acyltransferase MBOAT4 (Homo sapiens, UniProt Q96T53)
T1 sequence (Q96T53 whole entry): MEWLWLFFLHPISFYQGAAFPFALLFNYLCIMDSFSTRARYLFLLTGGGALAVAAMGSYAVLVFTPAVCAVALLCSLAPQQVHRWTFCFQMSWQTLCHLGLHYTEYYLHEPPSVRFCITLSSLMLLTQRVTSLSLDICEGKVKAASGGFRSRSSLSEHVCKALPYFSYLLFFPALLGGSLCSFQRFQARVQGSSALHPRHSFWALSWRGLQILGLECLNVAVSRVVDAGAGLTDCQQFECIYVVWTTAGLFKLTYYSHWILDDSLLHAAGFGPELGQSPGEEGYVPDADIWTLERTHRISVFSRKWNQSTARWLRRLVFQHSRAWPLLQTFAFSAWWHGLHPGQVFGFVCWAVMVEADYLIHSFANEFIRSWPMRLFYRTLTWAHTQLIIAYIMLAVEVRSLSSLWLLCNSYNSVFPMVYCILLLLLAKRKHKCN
Assay: Inhibition of human GOAT octanoylation activity expressed in insect Sf9 cell membranes using GSSFLCAcDan as substrate after 1 hr by reverse phase HPLC with fluorescence detection method

| SMILES | IC50 [µM] |
| --- | --- |
| CC(C)C[C@H](NC(=O)[C@H](Cc1ccccc1)NC(=O)[C@H](Cn1cc(Cc2ccccc2)nn1)NC(=O)[C@H](CO)NC(=O)CN)C(N)=O | 6 |
| CC(C)C[C@H](NC(=O)[C@H](Cc1ccccc1)NC(=O)[C@H](Cn1cc(CCCc2ccccc2)nn1)NC(=O)[C@H](CO)NC(=O)CN)C(N)=O | 0.7 |
| CC(C)C[C@H](NC(=O)[C@H](Cc1ccccc1)NC(=O)[C@H](Cn1cc(CCCCc2ccccc2)nn1)NC(=O)[C@H](CO)NC(=O)CN)C(N)=O | > 1 |
| CC(C)C[C@H](NC(=O)[C@H](Cc1ccccc1)NC(=O)[C@H](Cn1cc(CCc2ccccc2)nn1)NC(=O)[C@H](CO)NC(=O)CN)C(N)=O | 3.8 |
